Experimental data as given in ChEMBL document CHEMBL1132858, “1,1-Dimethylallylcoumarins potently suppress both lipopolysaccharide- and interferon-gamma-induced nitric oxide generation in mouse macrophage RAW 264.7 cells” (2000).
The source made the active and inactive calls. No cut-off for these calls is given here.

Species: Mus musculus
Test: Compound was tested for cytotoxicity against mouse macrophage RAW 264.7 cells using MTT assay; Inactive
Format: functional, cell-based
With C=CCc1c(O)ccc2ccc(=O)oc12 the Activity was “inactive”. In the case of C=C(C)[C@H]1O[C@@H]1c1c(OC)ccc2ccc(=O)oc12, the Activity is reported as “inactive”. In the case of COc1ccc2ccc(=O)oc2c1C1=C(C)COC1=O, the Activity is reported as “inactive”. O=c1ccc2c(O)cc(O)cc2o1 was tested, and the Activity was “inactive”. C=C1COC2Oc3ccc4ccc(=O)oc4c3C12 (stereo not drawn) was tested, and the Activity was “inactive”. In the case of C=CCOc1ccc2ccc(=O)oc2c1, the Activity is reported as “inactive”. In the case of CC(C)(O)[C@@H]1Cc2c(ccc3ccc(=O)oc23)O1, the Activity is reported as “inactive”.

Species: Mus musculus
Test: Percent inhibition of nitric oxide generation in both lipopolysaccharide and interferon gamma induced mouse macrophage RAW 264.7 cells
Format: functional
For CC1(C)OC1COc1c2occc2cc2ccc(=O)oc12 (stereo not drawn) [HERACLENINPRANGENIN], the Inhibition was 36.9%. Compound C=C(COC(=O)CC(C)C)C1OC1c1c(OC)ccc2ccc(=O)oc12 (stereo not drawn) has an Inhibition of 86.1%.

Species: Mus musculus
Test: Compound was tested for the inhibitory activity against mouse macrophage RAW 264.7 cells at the concentration of 50 uM; Inactive
Format: functional, cell-based
C=CC(C)(C)c1cc2c(O)c3c(c(C(C)(C)C=C)c2oc1=O)OC(C)(C)C=C3 [CLAUSARIN] was tested, and the Activity was “inactive”. In the case of CC(C)=CCc1c(O)ccc2ccc(=O)oc12, the Activity is reported as “inactive”. In the case of CC(C)=CCC/C(C)=C/CC/C(C)=C/COc1ccc2ccc(=O)oc2c1, the Activity is reported as “inactive”. C=CC(C)(C)c1c2c(c(O)c3ccc(=O)oc13)C=CC(C)(C)O2 [NORDENTATIN] was tested, and the Activity was “inactive”. C=CC(C)(C)Oc1c2c(c(C(C)(C)C=C)c3oc(=O)ccc13)OC(C)(C)C=C2 was tested, and the Activity was “inactive”. CC(C)=CCOc1ccc2ccc(=O)oc2c1 was tested, and the Activity was “inactive”.

Species: Mus musculus
Test: Percent inhibition of nitric oxide generation in both lipopolysaccharide and interferon gamma induced mouse macrophage RAW 264.7 cells at the concentration of 10 uM.
Format: functional
With C=CC(C)(C)c1cc2c(O)c3c(c(C(C)(C)C=C)c2oc1=O)OC(C)(C)C=C3 [CLAUSARIN] the inhibition at 10 µM was 91.2%. In the case of C=CC(C)(C)c1c2c(c(O)c3ccc(=O)oc13)C=CC(C)(C)O2 [NORDENTATIN], the inhibition at 10 µM is reported as 91.2%. In the case of C=CC(C)(C)Oc1c2c(c(C(C)(C)C=C)c3oc(=O)ccc13)OC(C)(C)C=C2, the inhibition at 10 µM is reported as 91.2%.
